This is an account of results in US10941126B2, “Bridged bicycloalkyl-substituted aminothiazoles and their methods of use” (Temple University—Of The Commonwealth System of Higher …, priority 2017, dated 2021).

The structures appear in SMILES notation.

Holding throughout (type): cell-based, human
One assay concerns SW48 and HCT116 cells. The experiment in a line: qPCR for ERV expression. The following applies: Four-day treatment. The procedure:
Total RNA was extracted using TRIzol reagent (Invitrogen) following the manufacturer's protocol and RNA concentrations were measured using Nanodrop. cDNAs were synthesized using High Capacity cDNA Reverse Transcription Kit (ThermoFisher) and qPCR was performed using either ready-made TaqMan® assays or SYBR-green using custom-designed primers. All the data were analyzed using Applied Biosystems software (StepOne™ Software V2.3). For all experiments, relative expression levels of the target genes were determined by calculating the 2^−ΔΔCt values. All experiments were performed at least in triplicates. Either GAPDH or 18S rRNA was used as an internal normalization control for protein coding genes. RPLPO was used as an internal normalization control for ERVs. All SYBR-green primers were described previously and are listed in Table 1 along with TaqMan® probes used.
A general note: Real-time PCR tracks product formation cycle by cycle.

In assay [1] the test system is YB5 cells. Briefly: GFP reactivation in YB5 cells (flow cytometry). As to conditions: YB5 cells, one-time 4-day treatment. A general note: In flow cytometry, cells or beads pass a laser one at a time.
For assay [2], the system named is YB5 cells. The experiment in a line: GFP reactivation in YB5 cells (flow cytometry). The text has this: To screen the compounds of the invention for epigenetic anti-cancer activity the YB5 cell-based system, which is derived from the human colon cancer cell line SW48, was used (Si et al., 2010, Cancer Res. 70:6968-6977; Raynal et al., 2012, Cancer Res. 72:1170-1181). YB5 cells contain a single insertion of cytomegalovirus (CMV) promoter driving green fluorescent protein (GFP) gene. GFP expression is silenced in >99.9% of YB5 cells by epigenetic mechanisms. In YB5 cells, the inserted GFP gene behaves similarly to endogenous tumor suppressor genes (TSGs) silenced by epigenetic mechanisms, and it can be reactivated by epigenetic anti-cancer agents such as DNA methylation inhibitors and/or HDAC inhibitors such as depsipeptide (Si et al., 2010, Cancer Res. 70:6968-6977; Raynal et al., 2012, Cancer Research, 72:1170-1181; Wu et al., 2008, Mol. Cell Biol, 28:3219-3235). Thus, reactivation of GFP expression and the resulting fluorescence is a measure of epigenetic anti-cancer activity.
The following procedure may be used to identify compounds of useful in the invention. YB5 cells cultured in L-15 medium supplemented with 10% fetal bovine serum and 1% P/S are treated for 24 hours with varying concentrations (50 nM, 100 nM, 500 nM, 1 μM, 5 μM, 10 μM, 25 μM, and 50 μM) of test compounds. After treatment, cells are trypsinized and re-suspended in cell culture media with propidium iodide (PI) to stain dead cells. Reactivation of GFP is measured using flow cytometry to identify the GFP positive population. The relative activities are expressed as the percent of the response compared to treatment with 20 nM HDACi depsipeptide for 24 hours. YB5 cells are grown in 1% CO2 atmosphere at 37° C.
NDL-3040 compound library consists of 3040 chemically diverse compounds that are semi-natural, derived from natural compounds, or synthetic compounds that are natural-compound-like. The small molecules were arrayed in 96-well plates as 10 mM stocks in 100% DMSO and were purchased from TimTec Inc. An aminothiazole analog library (93 small molecules) was also purchased from the same vendor and was in a 96-well plate format as 10 mM stocks in 100% DMSO. The 3040 compounds were screened at 25 μM for 24 hr. All plates were kept at −80° C. before use. YB5 cells growing in log phase (70-80% confluency) in 96-well plates were used. Each experimental 96-well plate contained 80 different compounds. Compounds were dispensed using an INTEGRA VIAFLO96 96-well pipette. After a 24 hr drug treatment, cells were trypsinized for 10 mins and re-suspended in L-15 medium containing propidium iodide (PI) to stain for dead cells. A total of 10000 cells per well were analyzed using Millipore Guava flow cytometer (EMD, Millipore). GFP positive percentage was calculated by excluding all the PI positive cells. After finishing the screening, the average Z-factor
For drug screening and dose response validations, GFP positive cells were detected by Millipore Guava flow cytometer (EMD, Millipore). Cell cycle analysis was performed using BD FACSCalibur™ by propidium iodide staining four days after drug treatment. Sub-G1 population percentage was also included to measure apoptotic cell proportion. Data were analyzed using FlowJo software version 10.2. For the cell differentiation analysis, cells were washed and stained with propidium iodide (PI), CD11 b (BD Biosciences, #562793) and the isotype control IgG (BD Biosciences, #555748). Flow cytometry analysis was performed on a Millipore Guava flow cytometer (EMD, Millipore). For the ID8 in vivo experiments, ascites was drained from 5-10 mice per group and incubated in ACK buffer (Thermo Fisher) to lyse red blood cells for 10 minutes, then washed. Ascites from each mouse was individually lysed and prepared for flow cytometry. Mononuclear cells collected were cultured for 4 hours in RPMI with 5% Fetal Bovine Serum and in the presence of Cell Stimulation Cocktail (plus protein transport inhibitors; eBioscience). […]

In the next assay the test system is YB5. Briefly: Cell cycle analysis and sub-G1 (propidium iodide). The following applies: four-day drug treatment. The procedure: For drug screening and dose response validations, GFP positive cells were detected by Millipore Guava flow cytometer (EMD, Millipore). Cell cycle analysis was performed using BD FACSCalibur™ by propidium iodide staining four days after drug treatment. Sub-G1 population percentage was also included to measure apoptotic cell proportion. Data were analyzed using FlowJo software version 10.2. For the cell differentiation analysis, cells were washed and stained with propidium iodide (PI), CD11 b (BD Biosciences, #562793) and the isotype control IgG (BD Biosciences, #555748). Flow cytometry analysis was performed on a Millipore Guava flow cytometer (EMD, Millipore). For the ID8 in vivo experiments, ascites was drained from 5-10 mice per group and incubated in ACK buffer (Thermo Fisher) to lyse red blood cells for 10 minutes, then washed. Ascites from each mouse was individually lysed and prepared for flow cytometry. Mononuclear cells collected were cultured for 4 hours in RPMI with 5% Fetal Bovine Serum and in the presence of Cell Stimulation Cocktail (plus protein transport inhibitors; eBioscience). […] Flow cytometry acquisition was performed on an LSRII cytometer (BD Biosciences) and data were analyzed using FlowJo software version 10.2.

For `Nc1nc(N[C@H]2CC3CCC2C3)sc1C(=O)c1ccccc1[N+](=O)[O-]` (some centres unmarked) [MC180295], the ERV expression result in the assay with SW48 and HCT116 cells is “activated the expression of several ERVs”. Moreover, in the assay on YB5 cells [1], the “concentration at which active (GFP re-expression)” value turned out to be 50 nM. Further, the “relative activity to Depsipeptide @ 500 nM %” value in the assay with YB5 cells [2] (500 nM) is 14.10%. Further, in the assay on YB5 cells [2] (50 μM), the “relative activity to Depsipeptide @ 50 μM %” value was found to be 23.32%. Also, the Emax at 1 µM in the assay with YB5 cells [2] (Homo sapiens, 24 h, read-out: relative activity to Depsipeptide @ 1 μM %) amounted to 28.8%. Moreover, the Emax at 5 µM with YB5 cells [2] (Homo sapiens, 24 h, read-out: relative activity to Depsipeptide @ 5 μM %) amounted to 65.4%. In addition, in the assay with YB5 cells [2] (Homo sapiens, 24 h, read-out: relative activity to Depsipeptide @ 10 μM %), the Emax at 10 µM came out at 72.8%. Moreover, the Emax at 25 µM in the assay with YB5 cells [2] (Homo sapiens, 24 h, read-out: relative activity to Depsipeptide @ 25 μM %) turned out to be 73.3%. Besides, in the assay on YB5 cells [2] (at 500 nM), the “GFP+ cells” value is ~60%. Moreover, in the assay with YB5, the cell cycle arrest result is “no cell cycle arrest” and the sub-G1 subpopulation result is “increase in the sub-G1 subpopulation”.
